Test results published in ChEMBL document CHEMBL1201862, “PubChem BioAssay data set” (2004).
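All cell lines were grown in 96-well plates and treated with compound for 48 hours. GI50: concentration for 50% inhibition of growth.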 The source made the active and inactive calls. No stated cut-off is given here; in the data, active = GI50 up to about 1.1 µM and inactive = higher.

Experiments:
Experiment in all cases: inhibition of tumour cell growth, NCI panel, 48 h
XF498 = system: XF498
HOP-18 = system: HOP-18
LXFL 529 = system: LXFL 529
M19-MEL = system: M19-MEL
KM-20L2 = system: KM-20L2
RXF 631 = system: RXF 631
DLD-1 = system: DLD-1
SNB-78 = system: SNB-78

Measured: GI50

COc1cc2c(cc1OC)C(Cl)C(c1ccc(Cl)cc1)=C2Cl (centres undefined)
inactive: XF498 3.45 µM | HOP-18 15.9 µM | LXFL 529 4.23 µM | M19-MEL 17.1 µM | KM-20L2 18.1 µM | RXF 631 21.3 µM | DLD-1 16.3 µM | SNB-78 13 µM

Cc1cc(NS(=O)(=O)c2ccc(NC(=O)c3cccc4cc5ccccc5nc34)cc2)no1
inactive: XF498 17 µM | LXFL 529 15.8 µM | M19-MEL 16.6 µM | KM-20L2 27.7 µM | RXF 631 17.7 µM | DLD-1 19.9 µM | SNB-78 29.9 µM

O=C(O)CCc1cccc2c1oc1c(CCC(=O)O)cccc12
inactive: XF498 > 100 µM | HOP-18 > 100 µM | LXFL 529 > 100 µM | M19-MEL > 100 µM | KM-20L2 > 100 µM | DLD-1 > 100 µM | SNB-78 48.1 µM

COc1cccc(NC(=O)CC(=O)n2nc(C)c(/N=N/c3ccccc3)c2C)c1
inactive: XF498 56.9 µM | HOP-18 12 µM | LXFL 529 > 100 µM | M19-MEL > 100 µM | RXF 631 > 100 µM | DLD-1 > 100 µM | SNB-78 > 100 µM

CC(O)/C=C/C(CCC(C)CO)C(C)C (centres undefined)
inactive: XF498 > 100 µM | LXFL 529 > 100 µM | M19-MEL > 100 µM | RXF 631 > 100 µM | DLD-1 > 100 µM | SNB-78 > 100 µM

O=C1c2ccccc2CC1C1(O)C(=O)Nc2c(Cl)cc(Cl)cc21 (centres undefined)
inactive: XF498 28.4 µM | HOP-18 14.1 µM | LXFL 529 18.8 µM | KM-20L2 > 100 µM | RXF 631 > 100 µM | DLD-1 53.1 µM | SNB-78 > 100 µM

O=C1CSC(Cc2nc3ccccc3[nH]2)=N1
inactive: XF498 20.4 µM | HOP-18 23.4 µM | LXFL 529 16.3 µM | M19-MEL 7.03 µM | KM-20L2 14.1 µM | DLD-1 18.2 µM | SNB-78 40.5 µM

CN(C)c1ccc(/C=C/C(=O)O)cc1
inactive: XF498 > 100 µM | HOP-18 > 100 µM | LXFL 529 > 100 µM | M19-MEL > 100 µM | KM-20L2 > 100 µM | DLD-1 > 100 µM | SNB-78 > 100 µM

Cn1c(=O)nc2n(-c3ccc(Br)cc3)c3ccccc3nc-2c1=O
inactive: XF498 12.1 µM | HOP-18 5.6 µM | LXFL 529 12.2 µM | M19-MEL 1.49 µM | KM-20L2 2.54 µM | RXF 631 4.11 µM | DLD-1 4.05 µM | SNB-78 14 µM
